Source: patent US7553832B2, “Methods and compositions for specific inhibition of protein splicing by small molecules” (Boston Biomedical Research Institute, priority 2005, dated 2009)
Converted amounts (≈) assume the structure as drawn. Marks after values point to notes of the source that are not given here.

Columns and labels:
[1] = target: T1, M. tuberculosis RecA intein (Mycobacterium tuberculosis, UniProt P9WHJ3); type: biochemical
T1 sequence (P9WHJ3 with tags, fused parts or gaps): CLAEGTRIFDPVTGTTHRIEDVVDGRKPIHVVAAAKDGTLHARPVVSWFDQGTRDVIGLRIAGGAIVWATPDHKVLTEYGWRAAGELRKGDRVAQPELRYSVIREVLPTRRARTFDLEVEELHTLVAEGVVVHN

[2] = test system: Mtu H37Rv; test: Mtu H37Rv MIC; type: cell-based, M. tuberculosis
[3] = test system: BCG; test: BCG MIC; type: cell-based
[4] = test system: Mtu H37Rv; test: Alamar Blue reduction inhibition measured by TAACF; type: cell-based, M. tuberculosis; conditions: Mycobacterium tuberculosis, at 6.25 μg/ml, as measured by TAACF

SMILES	IC50 [1]	further results
Oc1cc2c(cc1C(c1ccc(Cl)c(Cl)c1)N1CCCC1)OCO2 (stereo not drawn) [Compound 1]	5 µM	
CCCN(CCC)S(=O)(=O)c1ccc(C(=O)SCC(=O)OCC)cc1 [Compound 2]	8 µM	
CS(=O)(=O)c1cc(C(F)(F)F)cc(S(C)(=O)=O)c1S(C)(=O)=O [Compound 3]	10 µM	Mtu H37Rv MIC [2]: 20^a μg/ml; BCG MIC [3]: 20 µg/mL
CC(=O)c1cc([N+](=O)[O-])c(Sc2ccc(Cl)cc2)s1 [Compound 4]	5 µM	
O=S(=O)(c1ccc(Br)cc1)c1snnc1-c1ccccc1 [Compound 6]	4 µM	inhibition at 6.25 µg/mL [4]: 32%
O=S(=O)(c1ccc(Cl)c(Cl)c1)c1snnc1-c1ccccc1 [Compound 7]		inhibition at 6.25 µg/mL [4]: 96%
O=C1CSC(c2ccc(Cl)cc2)C(=O)N1c1ccc(C(F)(F)F)cc1 (stereo not drawn) [Compound 8]	5 µM	
COc1ccc(NC(=O)C(Cl)=C(Cl)[S+]([O-])Cc2ccccc2)cn1 (stereo not drawn) [Compound 9]	10 µM	Mtu H37Rv MIC [2]: 5^d μg/ml; BCG MIC [3]: 5 µg/mL
O=C(Nc1ccccc1)c1nnsc1S(=O)(=O)c1ccc(Cl)cc1 [Compound 10]	8 µM	
O=C(c1nnsc1[S+]([O-])c1ccc(Cl)cc1)N1CCCCC1 (stereo not drawn) [Compound 11]	4 µM	Mtu H37Rv MIC [2]: 5 µg/mL; BCG MIC [3]: 5 µg/mL
O=C(Nc1ccc(F)cc1)c1nnsc1S(=O)(=O)c1ccc(Cl)cc1 [Compound 12]	3 µM	Mtu H37Rv MIC [2]: 10 µg/mL; BCG MIC [3]: 20 µg/mL
O=C(CCl)N1CCN2C(=O)c3ccccc3C12c1ccc(Cl)cc1 (stereo not drawn) [Compound 13]	4 µM	Mtu H37Rv MIC [2]: 10 µg/mL; BCG MIC [3]: 20 µg/mL
N#CC1(C#N)C(c2cccc(I)c2)C(C(N)=O)N2C=Cc3ccccc3C21 (stereo not drawn) [Compound 17]	20 µM	
N#CC1(C#N)C(c2ccccc2Cl)C1(C#N)C#N [Compound 21]	8 µM	
CSC(Nc1ccc(F)cc1)=C(C#N)C(=O)c1ccco1 [Compound 22]	3 µM	Mtu H37Rv MIC [2]: 20 µg/mL
O=C(Oc1ccc(Cl)cc1)c1snnc1-c1ccccc1 [Compound 23]	3 µM	
N#CCSc1ccc(C#N)cc1 [Compound 24]	11 µM	MIC ([2]; Mycobacterium tuberculosis, H37RV): 5 µg/mL (≈ 28.7 µM)
C=CCn1c(Sc2ncnc3c2sc(=S)n3CC=C)nnc1-c1ccccc1 [Compound 27]	2 µM	
N#CC(N)=C(C#N)NCc1ccccc1Sc1ccc(Cl)cc1 [Compound 29]	30 µM	
CC1(C)CC(=O)c2c(S(C)(=O)=O)sc(C(=O)OCc3ccccc3)c2C1 [Compound 30]	5 µM	BCG MIC [3]: 20 µg/mL
N#Cc1nccnc1S(=O)(=O)c1cccs1 [Compound 31]	5 µM	Mtu H37Rv MIC [2]: 10 µg/mL; BCG MIC [3]: 6 µg/mL
COC(=O)c1sc(S(C)(=O)=O)c(C#N)c1-c1cc(C(C)(C)C)oc1C [Compound 33]	4 µM	
O=S(=O)(c1cccc(C(F)(F)F)c1)c1snnc1-c1ccccc1 [Compound 35]	1 µM	MIC ([3]; Mycobacterium tuberculosis variant bovis BCG, BCG, read-out: BCG MIC): 20 µg/mL (≈ 54 µM)
O=S(=O)(Cc1cccc(C(F)(F)F)c1)c1snnc1-c1ccccc1 [Compound 36]	5 µM	
CC1(C)CC(=O)C2(C(=O)C1)C(c1ccc(Cl)cc1Cl)C2(C#N)C#N (stereo not drawn) [Compound 37]	5 µM	
O=C(OCn1ncc(Cl)c(Cl)c1=O)c1cccc(C(F)(F)F)c1 [Compound 38]	0.8 µM	

SMILES	IC50 [1]	further results
Cn1cc(C(=O)c2cccc(Cl)c2Cl)cc1C(=O)C(Cl)(Cl)Cl [Compound 40]	5 µM	
CCOC(=O)c1nnc(-c2ccccc2)nc1Sc1ccccc1C(=O)OC [Compound 41]	2 µM	
COc1ccc(NC(=O)C(Cl)=C(Cl)[S+]([O-])Cc2ccc(C)cc2)cn1 (stereo not drawn) [Compound 43]	3 µM	Mtu H37Rv MIC [2]: 2.5 µg/mL; BCG MIC [3]: 1 µg/mL
Oc1cc(OCc2ccc(C(F)(F)F)cc2)ccc1-c1cc[nH]n1 [Compound 44]	5 µM	
[O-][S+](c1ccc(C(F)(F)F)cc1)c1cnn2c(Cl)nnc2c1 (stereo not drawn) [Compound 45]	5 µM	Mtu H37Rv MIC [2]: 2.5 µg/mL; BCG MIC [3]: 5 µg/mL
COc1cccc(N(NC(=O)C(O)(c2cccc(C(F)(F)F)c2)c2cccc(C(F)(F)F)c2)C(=O)CCl)c1 [Compound 51]	2 µM	
O=C(Nn1c(C2CCCCC2)nc2ccccc2c1=O)c1cc([N+](=O)[O-])cc([N+](=O)[O-])c1Cl [Compound 53]	1 µM	BCG MIC [3]: ~20 µg/mL
O=[N+]([O-])c1cc(C(F)(F)F)cc([N+](=O)[O-])c1Sc1nc2ccccc2[nH]1 [Compound 55]	15 µM	Mtu H37Rv MIC [2]: 20 µg/mL; BCG MIC [3]: 5 µg/mL
CCOC(=O)CSc1nc2c(c(-c3cccs3)c1C#N)CN(C)CC2 [Compound 56]	< 35 µM	
O=C(CCl)c1ccc(Cc2ncc(C(F)(F)F)cc2Cl)s1 [Compound 57]	< 5 µM	
O=C(c1c[nH]c(C(=O)C(Cl)(Cl)Cl)c1)c1cccc(Cl)c1Cl [Compound 59]	< 5 µM	
O=C(c1c[nH]c(C(=O)C(Cl)(Cl)Cl)c1)c1ccc(Cl)cc1Cl [Compound 62]	< 5 µM	
Cc1cc(Oc2c([N+](=O)[O-])cc(C(F)(F)F)cc2[N+](=O)[O-])ccc1Cl [Compound 64]	6 µM	
Cc1cc(S(=O)(=O)c2ccc(C(F)(F)F)cc2[N+](=O)[O-])c(Cl)cc1Cl [Compound 66]	< 5 µM	BCG MIC [3]: >20 µg/mL
CCOC(=O)c1cnc2c(F)ccc(F)c2c1Oc1cncc(Cl)c1 [Compound 67]	< 5 µM	
O=C(Sc1ccccc1)c1ccc2ncsc2c1 [Compound 68]	8 µM	
Oc1cc2c(cc1C(c1ccc(C(F)(F)F)cc1)N1CCOCC1)OCO2 (stereo not drawn) [Compound 69]	< 5 µM	
Oc1ccc(Br)cc1CNc1cccc(C(F)(F)F)c1 [Compound 70]	12 µM	
CCOC(=O)c1cc(C#N)c(Sc2nnc(SCC3CC3)s2)nc1C(F)(F)F [Compound 71]	< 5 µM	Mtu H37Rv MIC [2]: 10 µg/mL; BCG MIC [3]: 10 µg/mL
CCOC(=O)c1cc(C#N)c(Sc2nnc(SC)s2)nc1C(F)(F)F [Compound 72]	< 5 µM	Mtu H37Rv MIC [2]: 10 µg/mL; BCG MIC [3]: 10 µg/mL
c1ccc(-c2cnc3nonc3n2)cc1 [Compound 74]	< 5 µM	
O=C(Oc1cc(OC(=O)c2ccco2)cc(OC(=O)c2ccco2)c1)c1ccco1 [Compound 75]	< 5 µM	
O=C(Oc1ccc(Br)cc1)c1ccco1 [Compound 76]	8 µM	
O=C(Oc1ccc(C=Nc2ccc(F)cc2)cc1)c1ccco1 [Compound 77]	30 µM	
O=C(Oc1ccc(C=Nc2ccc(F)cc2)cc1)c1cccs1 [Compound 78]	13 µM	
Cc1nn(C(N)=S)c(O)c1C(c1cccc(Cl)c1Cl)C(C#N)C#N (stereo not drawn) [Compound 81]	12 µM	
